Experimental data reported in PubChem BioAssay (NCI).
Several values for one entry are separate records, joined by “and”; a condition that tells them apart may be missing. Equal entries are not always repeated.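 A five-concentration, 48-hour dose response in 96-well plates underlies each endpoint, interpolated linearly between surrounding concentrations. GI50: concentration for 50% inhibition of growth. The concentration for full growth arrest is given as TGI.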

Tests used:
Test in all cases: NCI-60 cell line screen, 48 h
A498 renal = test system: A498 renal
CAKI-1 renal = test system: CAKI-1 renal
HCC-2998 colon = test system: HCC-2998 colon
M14 melanoma = test system: M14 melanoma
SK-MEL-28 melanoma = test system: SK-MEL-28 melanoma
SR leukemia = test system: SR leukemia
TK-10 renal = test system: TK-10 renal
UACC-257 melanoma = test system: UACC-257 melanoma
SF-539 CNS = test system: SF-539 CNS
SNB-75 CNS = test system: SNB-75 CNS

SMILES	TGI (A498 renal)	TGI (CAKI-1 renal)	TGI (HCC-2998 colon)	TGI (M14 melanoma)	TGI (SK-MEL-28 melanoma)	TGI (SR leukemia)	TGI (TK-10 renal)	TGI (UACC-257 melanoma)	GI50 (A498 renal)	GI50 (CAKI-1 renal)	GI50 (HCC-2998 colon)	GI50 (M14 melanoma)	GI50 (SF-539 CNS)	TGI (SF-539 CNS)	GI50 (SK-MEL-28 melanoma)	GI50 (TK-10 renal)	GI50 (UACC-257 melanoma)	TGI (SNB-75 CNS)	GI50 (SNB-75 CNS)	GI50 (SR leukemia)
CC1CC(=O)Nc2ccc(Cl)cc2N1C(=O)CN1CCC(CCCCN(C)C)CC1 (stereo not given)	> 100 µM	> 100 µM	> 100 µM	> 100 µM	> 100 µM	> 100 µM	> 100 µM	> 100 µM												
CN1CCN(CCCOc2cccc3nc(Nc4cc(Cl)cc(Cl)c4)ccc23)CC1	3.51 µM	11.7 µM	3.17 µM	3.28 µM	3.13 µM		3.17 µM	3.54 µM	1.78 µM	2.97 µM	1.64 µM	1.73 µM	1.57 µM	3.03 µM	1.67 µM	1.75 µM	1.97 µM			
CCCCCC/C=C/C#CCCCCCCCC(=O)O	> 100 µM	> 100 µM	> 100 µM	> 100 µM	> 100 µM		> 100 µM	> 100 µM						> 100 µM				> 100 µM		
O=C1OC(CC(=O)c2ccc(F)cc2)C(Cl)=C1Cl (stereo not given)		92.8 µM	30.1 µM	56.6 µM	> 100 µM	79 µM	91.1 µM	33.6 µM						35.2 µM						
COc1ccccc1-n1cnc(N)c1C(=O)c1cc(OC)c(OC)c(OC)c1	9.69 µM	> 100 µM	> 100 µM	> 100 µM	> 100 µM	> 100 µM	> 100 µM		2.79 µM	3.12 µM	6.8 µM	3.5 µM	2.42 µM	9.12 µM	9.62 µM	5.21 µM		9.3 µM	2.3 µM	1.92 µM
COc1ccc(C(=O)/C=C/c2sc(Cl)nc2Cl)cc1	20.2 µM	5.45 µM	3.31 µM	2.96 µM	8.17 µM		30.3 µM	12.7 µM	4.67 µM	1.7 µM	1.72 µM	0.466 µM	1.56 µM	4.26 µM	2.57 µM	4.57 µM	3.26 µM	8.29 µM	2.56 µM	
c1ccc2c(c1)[nH]c1cnc3c4ncccc4[nH]c3c12	> 100 µM	> 100 µM	> 100 µM	> 100 µM	> 100 µM		> 100 µM	> 100 µM						> 100 µM				> 100 µM		
Nc1cn(C2OC(CC(c3ccccc3)(c3ccccc3)c3ccccc3)C(O)C2O)c(=O)[nH]c1=O (stereo not given)	95.5 µM	57.1 µM	64.4 µM	48.6 µM	81.7 µM	39.9 µM	96.2 µM	52.3 µM										> 100 µM		
CCOC(=O)c1oc2c(OC)ccc3c2c1CCC3	> 100 µM		> 100 µM	> 100 µM	> 100 µM	> 100 µM	> 100 µM	10.9 µM						> 100 µM				> 100 µM		
Cc1c2cnccc2c(C)c2c1c1cc(O)ccc1n2C(C)C	13.3 µM	5.24 µM	4.94 µM	2.34 µM	2.96 µM		8.55 µM		2 µM	0.388 µM	1.55 µM	0.678 µM	1.32 µM	2.9 µM	1.23 µM	3.31 µM		2.46 µM	1.2 µM	
CCn1cnc(C[C@H](NC(=O)[C@H](CCCCNC(=O)Nc2cc(C(F)(F)F)cc(C(F)(F)F)c2)NC(=O)Nc2cc(C(F)(F)F)cc(C(F)(F)F)c2)C(=O)OC)c1	> 10 µM	> 10 µM	> 10 µM	> 10 µM	> 10 µM		> 10 µM	> 10 µM	> 10 µM	> 10 µM	3.98 µM	6.29 µM	> 10 µM	> 10 µM	6.62 µM	7.46 µM	> 10 µM	> 10 µM	1.37 µM	
O/N=C1/CCC/C1=C\c1ccccc1		> 100 µM	> 100 µM	> 100 µM	> 100 µM	> 100 µM	> 100 µM	> 100 µM						> 100 µM				44.8 µM		
O=S(=O)(C1=CC(S(=O)(=O)c2ccccc2)COC1)c1ccccc1 (stereo not given)		> 100 µM	> 100 µM	> 100 µM	> 100 µM	> 100 µM	> 100 µM	> 100 µM						> 100 µM				> 100 µM		
Cc1ccc2nc(NC(=O)C(=O)C(C(=O)c3ccc4ccccc4c3)C3OC(=O)c4ccccc43)sc2c1 (stereo not given)	21.3 µM	52.3 µM	23.7 µM	28.2 µM	19.3 µM	62.1 µM		31.8 µM						9.21 µM						
CC(C)N(C(=O)C12C3C4C1C1C2C3C41C(=O)C(C)(C)C)C(C)C (stereo not given)	> 100 µM	> 100 µM	> 100 µM	> 100 µM	> 100 µM		> 100 µM	> 100 µM						> 100 µM				> 100 µM		
CC(=O)N[C@H](C)[C@@H](O)[C@@H](C)[C@@H]1OC(=O)/C=C/C=C(C)\C=C\[C@]2(C)C[C@@H](NS(C)(=O)=O)C=C[C@@H]2/C=C(C)/C=C/[C@H]1C			> 43.5 µM		> 43.5 µM	> 43.5 µM	> 43.5 µM	> 43.5 µM	0.0068 µM and 0.0121 µM			0.00309 µM	0.00357 µM and 0.00623 µM	> 43.5 µM	0.008 µM and 0.0222 µM	0.045 µM and 0.276 µM	0.0227 µM and 0.00967 µM		0.00177 µM and 0.00888 µM	0.00606 µM and 0.00719 µM
CCN(C(=O)N1CCN(c2cc3c(cc2F)c(=O)c(C(=O)O)cn3C2CC2)CC1)c1nc(-c2ccccc2)cs1		10.3 µM	79.3 µM	> 100 µM	> 100 µM	9.92 µM	53.2 µM	7.61 µM		2.58 µM	3.28 µM	3.16 µM	2.48 µM	7.51 µM	3 µM	3.37 µM	2.83 µM	16.4 µM	3.66 µM	1.54 µM
